Assay results: patent publication US7811577B2 (priority 2004, dated 2010)
“Also recorded” adds a separate entry of the source. Where two headings read alike, the source gives them in different places. Numbered stars: 1 amine (or outer) side, 2 acyl side, 3 side chain; on linkers, the order of the positions; unused ones are H or OH. Bridge positions count the residues as written; N and C are the ends. Square brackets hold non-standard residues; d marks the D form. Ends that are not written are not given here. I, II: the chains in the order shown. * marks the point of attachment. Biotin = O=C1N[C@H]2[C@H](CS[C@H]2CCCCC(=O)*)N1; Ttds = O=C(CCC(=O)[*:2])NCCCOCCOCCOCCCN[*:1]; Acm = CC(=O)NC*

What was measured:
[1] = Thermal denaturation (CD) in 2M guanidinium chloride; settings: for melting temperature / midpoint of thermal denaturation: in the presence of 2M guanidinium chloride
Description: The stability of SZN17 was compared with that of IZN17 using thermal denaturation analysis performed in the presence of 2M guanidine hydrochloride (GdnHCl).

HIV-1 HXB2 = settings: for anti-viral activity against HIV-1 HXB2, in words: single-cycle/single cell infectivity assay
[2] = tested on: D5 IgG binding to biotinylated 5-Helix; assay: Biotinylated 5-Helix/D5 IgG interaction (competition) assay, AlphaScreen
From the text: The instrument records these emissions.
(§1) This test determines whether the covalently-stabilized, homotrimeric or heterotrimeric CC-chimeric N-peptides can preserve the structure of the internal, N-helix coiled-coil of gp41.

[3] = tested on: D5 IgG binding to biotinylated-IZN17; assay: Biotinylated-IZN17/D5 IgG interaction assay, AlphaScreen
From the text: The instrument records these emissions.
as §1

[4] = Circular dichroism spectroscopy and thermal denaturation without denaturant; format: physicochemical; settings: for melting point (thermal denaturation): no denaturant
Description: The IZ-like scaffold in CCI10N17 (SEQ ID NO:20) comprises only the ten COOH-terminal residues of the “IZ” scaffold, with addition of the covalent trimerizing unit (CCGG (SEQ ID NO:28)) at the NH2-terminus of the peptide. The non-covalently-stabilized CCI10N17 coiled-coil (i.e., the coiled-coil formed under non-oxidizing conditions) was dissolved at neutral pH, and its secondary structure content was determined by circular dichroism spectroscopy (CD).
In order to understand the role of the covalent trimerizing unit (CCGG; SEQ ID NO:28), the CCI10N17 peptide was dissolved to permit air oxidation under the same conditions as previously shown for CCIZN17, to generate covalently-stabilized coiled-coil molecules, (CCI10N17)3. […] The trimer (CCI10N17)3 was analyzed by CD and denaturation studies for analysis of both its secondary structure content and stability. The helical content of this molecule was only 85% with a melting curve showing a low cooperatively profile and a low melting point of about 60° C.

HIV-1 89.6 = format: cell-based
[5] = tested on: D5-IgG binding to biotinylated IQN17; assay: Competition of D5-IgG binding to biotinylated IQN17, AlphaScreen
[6] = tested on: D5 IgG / biotinylated-IZN17; assay: IC50 (nM)
From the text: Table printed on a drawing sheet, FIG. 6
Head of the field: IC50 (nM)
Wildtype IZN17 peptide was included as a positive control, previously shown to inhibit D5 binding in this assay.
First copying reader's note: The table stands beside a dose-response plot (Average Alpha Counts vs [Peptide]), which is not copied.

[7] = non-covalently-stabilized coiled-coil, neutral pH, 15 μM

Q: Which “Tm (2M GdnHCl), midpoint of thermal denaturation” value (from here on “Tm (2M GdnHCl), midpoint”) [1] does the source give for “IKKEIEAIKKEQEAIKKKIEAIEKaLQLTVWGIKQLQARIL (Ac-IKKEIEAIKKEQEAIKKKIEAIEKALQLTVWGIKQLQARIL-NH2) [IZN17A1]” here?
A: 51.7 °C

Q: For “CCGGIKKEIEAIKKEQEAIKKKIEAIEKLLQLTVWGIKALAAAIA [CCIZN17Ala4]”, which “anti-viral activity against HIV-1 HXB2, in words” value (HIV-1 HXB2) is on record?
A: retain anti-viral activity

Q: Which IC50 (HIV-1 HXB2; HXB2) does the source give for “Biotin-GGIKKEIEAIKKEQEAIKKKIEAIEKEIEAQQHLLQLTVWGIKQLQARIL-NH2 [Biotin-IZN23]” here?
A: 2.17 nM

Q: Which “Tm (2M GdnHCl), midpoint” value [1] does the source give for “IKKEIEAIKKEQEAIKKKIEAIEKLLQLTVWGIKQLQARIa (Ac-IKKEIEAIKKEQEAIKKKIEAIEKLLQLTVWGIKQLQARIA-NH2; not fully specified (residue 41)) [IZN17A17]” here?
A: 60.6 °C

Q: Which “Tm (2M GdnHCl), midpoint” value [1] does the source give for “IKKEIEAIKKEQEAIKKKIEAIEKLLQLTVWGIKaLQARIL (Ac-IKKEIEAIKKEQEAIKKKIEAIEKLLQLTVWGIKALQARIL-NH2; not fully specified (residue 35); printed as IKKEIEAIKKEQEAIKKKIEAIEKLLQLTVWGIKaLQARIL) [IZN17A11]” here?
A: 66.0 °C

Q: What does the source list for “I: Ac-CCGGIKKKIEAIEKLLQLTVWGIKQLQARIL-NH2 / II: Ac-CCGGIKKKIEAIEKLLQLTVWGIKQLQARIL-NH2 / III: Ac-CCGGIKKKIEAIEKLLQLTVWGIKQLQARIL-NH2 (disulfide I:1-III:2, I:2-II:2, II:1-III:1; C-terminus assumed) [(CCI10N17)3]”?
A: fold less potent (IC50) than (CCIZN17)3 (HIV-1 HXB2): approximately 150 fold; IC50 (HIV-1 HXB2; HXB2): 24 nM; fold reduction in anti-viral activity relative to IZN17 (HIV-1 HXB2; HXB2): approximately 10 fold; anti-viral activity against HIV-1 HXB2, in words (HIV-1 HXB2): less potent in anti-viral activity assays; D5 IgG binding in bio-5-Helix/D5 IgG interaction assay, in words [2]: competes for binding of D5 IgG to Biotin-5-Helix; D5 IgG binding in bio-IZN17/D5 IgG interaction assay, in words [3]: somewhat less effective than 112N7; also recorded: clearly inhibits; helical content by circular dichroism [4]: 85%; melting point (thermal denaturation) [4]: about 60 °C; melting point (thermal denaturation) ([4]; listed as (CC110N17)3): 60 °C

Q: Which results are given for enfuvirtide?
A: IC50 (HIV-1 BaL; read-out: Anti-viral activity, IC50, HIV strain BaL): 2.4 nM; IC50 (HIV-1 HXB2; read-out: Anti-viral activity, IC50, HIV strain HXB2): 5.3 nM; IC50 (HIV-1 89.6; HIV strain 89.6, read-out: Anti-viral activity, IC50): 29 nM

Q: For “(CCS10N17)3: covalent disulfide trimer of CCS10N17 (CCGGIEKKIEAIEKLLQLTVWGIKQLQARIL; also: disulfide-linked homotrimer)”, which “anti-viral activity against HIV-1 HXB2, in words” value (HIV-1 HXB2) is on record?
A: much lower potencies

Q: Which “Tm (2M GdnHCl), midpoint” value [1] does the source give for “IKKEIEAIKKEQEAIKKKIEAIEKLLQLTVWGIKQLQAaIL (Ac-IKKEIEAIKKEQEAIKKKIEAIEKLLQLTVWGIKQLQAAIL-NH2; not fully specified (residue 38); printed as IKKEIEAIKKEQEAIKKKIEAIEKLLQLTVWGIKQLQAaIL) [IZN17A15]” here?
A: 77.2 °C

Q: Which “Tm (2M GdnHCl), midpoint” value [1] does the source give for “IKKEIEAIKKEQEAIKKKIEAIEKLLQLTVaGIKQLQARIL (Ac-IKKEIEAIKKEQEAIKKKIEAIEKLLQLTVAGIKQLQARIL-NH2) [IZN17A7]” here?
A: 61.4 °C

Q: What about the “competition of D5-IgG binding to biotinylated IQN17, in words” value [5] of the same molecule?
A: completely abolish binding of D5

Q: Which results are given for “IEKKIEAIEKKIEAIEKKIEAIEKLLQLTVWGIKQLQARIL [SZN17]”?
A: IC50 (HIV-1 HXB2; read-out: IC50 in single-cell infectivity assay, against HIV BXB2 (so in the source), unit inferred): 1.5 nM; melting temperature / midpoint of thermal denaturation [1]: > 90 °C

Q: With “IKKEIEAIKKEQEATKKKIEAIEKLLQLTVWGIKQLaARIL [IZN17A13]” as the molecule, how does the “Tm (2M GdnHCl), midpoint” value [1] read?
A: 71.5 °C

Q: What does the source list for “CCGGIKKKIEAIEKLLQLTVWGIKQLQARIL [CCI10N17, shortened IZ scaffold]”?
A: anti-viral activity against HIV-1 HXB2, in words (HIV-1 HXB2): less potent anti-virals; helical content by circular dichroism [4, 7]: 61%

Q: Which results are given for “CCGGIEKKIEEIEKKIEEIEKKIEEIEKLLQLTVWGIKQLQARIL [CCEZN17]”?
A: anti-viral activity against HIV-1 HXB2, in words (HIV-1 HXB2): lack of anti-viral activity; D5 IgG binding in bio-5-Helix/D5 IgG interaction assay, in words [2]: interact with D5 IgG; D5 IgG binding in bio-IZN17/D5 IgG interaction assay, in words [3]: interact with D5 IgG

Q: For “Ac-IKKEIEAIKKEQEAIKKKIEAIEKLLQLTVWGIKQLQARIL-NH2 [IZN17, reference compound]”, which IC50 (HIV-1 BaL; BaL) is on record?
A: 3.2 nM

Q: And the IC50 (HIV-1 HXB2; HXB2)?
A: 1.7 nM

Q: What about the “anti-viral activity against HIV isolate 89.6, in words” value (HIV-1 89.6) of the same molecule?
A: completely resistant towards IZN17

Q: What about the “Anti-viral activity, IC50” value (HIV-1 89.6; HIV strain 89.6) of the same molecule?
A: No

Q: What about the “helical content by circular dichroism” value [4, 7] of the same molecule?
A: fully helical

Q: What about the “Tm (2M GdnHCl), midpoint” value [1] of the same molecule?
A: 61.5 °C

Q: And the “melting temperature / midpoint of thermal denaturation” value [1]?
A: 61.5 °C

Q: For “IEKKIEEIEKKIEEIEKKIEEIEKLLQLTVWGIKQLQARIL [EZN17, EZ scaffold fused to N17] [listing 1 of 2 here]”, which “D5 IgG binding in bio-5-Helix/D5 IgG interaction assay, in words” value [2] is on record?
A: interact with D5 IgG

Q: What about the “D5 IgG binding in bio-IZN17/D5 IgG interaction assay, in words” value [3] of the same molecule?
A: strongly binds to D5 IgG; also recorded: interact with D5 IgG; also recorded: affinity comparable to IZN17

Q: And the “helical content by circular dichroism” value [4]?
A: fully helical

Q: With “(CCIZN11IZ)3: covalent disulfide trimer of CCIZN11IZ (CCGGIKKEIEAIKKEQEAIKKKIEAIEKLLQLTVWGIKQIKKEIEAI; also: disulfide-linked homotrimer)” as the molecule, how does the IC50 (HIV-1 HXB2; read-out: IC50 against HIV-1 HXB2, single-cycle infectivity assay, HXB2) read?
A: 0.3 nM

Q: And the “D5 IgG binding in bio-5-Helix/D5 IgG interaction assay, in words” value [2]?
A: binds D5 IgG

Q: Which “Tm (2M GdnHCl), midpoint” value [1] does the source give for “IKKEIEAIKKEQEAIKKKIEAIEKLLQaTVWGIKQLQARIL (Ac-IKKEIEAIKKEQEAIKKKIEAIEKLLQATVWGIKQLQARIL-NH2) [IZN17A4]” here?
A: 58.2 °C

Q: What about the “competition of D5-IgG binding to biotinylated IQN17, in words” value [5] of the same molecule?
A: completely abolish binding of D5

Q: With “IKKKIEAIEKLLQLTVWGIKQLQARILGGCC [I10N17CC]” as the molecule, how does the “anti-viral activity against HIV-1 HXB2, in words” value (HIV-1 HXB2) read?
A: less potent anti-virals

Q: Which “Tm (2M GdnHCl), midpoint” value [1] does the source give for “IKKEIEAIKKEQEAIKKKIEAIEKLLQLTaWGIKQLQARIL (Ac-IKKEIEAIKKEQEAIKKKIEAIEKLLQLTAWGIKQLQARIL-NH2) [IZN17A6]” here?
A: 56.4 °C

Q: What does the source list for “IKKEIEAIKKEQEAIKKKIEAIEKLLQLTVWGIaQLQARIL (Ac-IKKEIEAIKKEQEAIKKKIEAIEKLLQLTVWGIAQLQARIL-NH2) [IZN17A10]”?
A: Tm (2M GdnHCl), midpoint of thermal denaturation [1]: 68.1 °C; competition of D5-IgG binding to biotinylated IQN17, in words [5]: completely abolish binding of D5

Q: With “IEKKIEEIEKKIEEIEKKIEEIEKLLQLTVWGIKQLQARIL [EZN17, EZ scaffold fused to N17] [listing 2 of 2 here]” as the molecule, how does the IC50 [6] read?
A: 18.3 nM

Q: For “IKKEIEAIKKEQEAIKKKIEAIEKLLaLTVWGIKQLQARIL (Ac-IKKEIEAIKKEQEAIKKKIEAIEKLLALTVWGIKQLQARIL-NH2) [IZN17A3]”, which “Tm (2M GdnHCl), midpoint” value [1] is on record?
A: 64.7 °C

Q: Which IC50 (HIV-1 HXB2; HXB2) does the source give for “Ac-LLQLTVWGIKQLQARILAIKKEIEAIKKEQEAIKKKIEAI-NH2 (C-terminus assumed) [N17IZ]” here?
A: 800 nM

Q: What does the source list for “ac-C(Acm)(thioE10N17)3: one ac-C(Acm)Ttds-CCE10N17 ligated via two thioether bonds to two acetyl-GGGE10N17 chains (peptide 1 {CH2CO}-C(Acm)[Ttds]CCIEEKIEEIEELLQLTVWGIKQLQARIL; peptide 2 Ac-GGGIEEKIEEIEELLQLTVWGIKQLQARIL; thioether I:N-I:3, I:N-I:4; numbers in words are those of the source; also: chain 2 present twice, each copy ligated via thioether to one of the two Cys of chain 1)”?
A: anti-viral activity against HIV-1 HXB2, in words (HIV-1 HXB2): much lower potencies; melting temperature / midpoint of thermal denaturation [1]: above 90 °C

Q: With “(CCS17N17)3: covalent disulfide trimer of CCS17N17 (CCGGIEKKIEAIEKKIEAIEKLLQLTVWGIKQLQARIL; also: disulfide-linked homotrimer)” as the molecule, how does the “melting temperature / midpoint of thermal denaturation” value [1] read?
A: above 90 °C

B1: ac-C(Acm)(thioIZN17)3: one ac-C(Acm)Ttds-CCIZN17 chain ligated via two thioether bonds to two acetyl-GGGIZN17 chains (peptide)
peptide 1: CCCGGIKKEIEAIKKEQEAIKKKIEAIEKLLQLTVWGIKQLQARIL
peptide 2: GGGIKKEIEAIKKEQEAIKKKIEAIEKLLQLTVWGIKQLQARIL
Q: Which “anti-viral activity against HIV-1 HXB2, in words” value (HIV-1 HXB2) does the source give for B1 here?
A: comparable antiviral activity to (CCIZN17)3
